According to ChEMBL document CHEMBL4177606, “Synthesis of novel 1,2,5-oxadiazoles and evaluation of action against Acinetobacter baumannii” (2017):

Test system: Acinetobacter baumannii
Test: Antibacterial activity against Acinetobacter baumannii ATCC 17978 after 24 to 48 hrs in presence of iron chelator 2,2'-dipyridyl by CLSI method
Assay type: functional

| MIC | Compound |
| --- | --- |
| 2000 µM | Cc1nonc1NC(=O)CSc1ccccn1 |
| > 4000 µM | Cc1nonc1NC(=O)CSc1ccc2ccccc2c1 |
| 2000 µM | Cc1nonc1NC(=O)COc1ccccc1 |
| > 4000 µM | Cc1nonc1NC(=O)CSc1nc2ccccc2s1 |
| > 4000 µM | O=C(COc1ccccc1)Nc1nonc1-c1ccccc1 |
| > 4000 µM | Cc1nonc1NC(=O)CN(CC(=O)Nc1nonc1C)c1ccccc1 |
| > 4000 µM | Cc1nonc1NC(=O)COc1cccc2ccccc12 |
| > 4000 µM | CCCc1nonc1NC(=O)/C=C/c1ccccc1 |
| > 4000 µM | Cc1nonc1NC(=O)COc1cccc(Cl)c1Cl |
| 4000 µM | CC(=O)Oc1ccc(/C=C/C(=O)Nc2nonc2C)cc1OC(C)=O |
| 2000 µM | COc1ccc(CCC(=O)Nc2nonc2C)cc1 |
| 2000 µM | Cc1nonc1NC(=O)CSC1=NCCS1 |
| 1000 µM | Cc1nonc1NC(=O)c1cccc2ccccc12 |

More lines, now with the values behind:

| Compound | MIC |
| --- | --- |
| Cc1nonc1NC(=O)CSc1nc2ccccc2[nH]1 | 2000 µM |
| O=C(CCc1ccccc1)Nc1nonc1-c1ccccc1 | > 4000 µM |
| Cc1nonc1NC(=O)CSc1ncccn1 | 4000 µM |
| CCCc1nonc1NC(=O)CCc1ccccc1 | 1000 µM |
| Cc1nonc1NC(=O)/C=C/c1ccccc1O | 500 µM |
| Cc1nonc1NC(=O)CCc1ccccc1 | 1000 µM |
| Cc1ccnc(SCC(=O)Nc2nonc2C)n1 | 4000 µM |
| O=C(/C=C/c1ccccc1)Nc1nonc1-c1ccccc1 | > 4000 µM |
| Cc1nonc1NC(=O)COc1ccc(Cl)cc1 | 1000 µM |
| CC(=O)Oc1ccccc1/C=C/C(=O)Nc1nonc1C | 2000 µM |
| Cc1nonc1NC(=O)/C=C/c1ccc(O)c(O)c1 | > 4000 µM |
| Cc1nonc1NC(=O)CSc1ccccc1 | 1000 µM |
| O=C(CSc1ccccc1)Nc1nonc1-c1ccccc1 | > 4000 µM |
| Cc1nonc1NC(=O)c1ccc2ccccc2c1 | 4000 µM |
| Cc1nonc1NC(=O)COc1ccc(Cl)c(Cl)c1 | 1000 µM |
| Cc1nonc1NC(=O)COc1ccccc1Cl | > 4000 µM |
| O=C(COc1ccccc1Cl)Nc1nonc1-c1ccccc1 | > 4000 µM |
| Cc1nonc1NC(=O)/C=C/c1ccccc1 | 1000 µM |
